“Also recorded” adds a separate entry of the source.
What was measured:
[1] = tested on: LU1205 human melanoma cells; assay: Growth of LU1205 human melanoma tumors expressing ATF2 peptide in nude mice; assay type: in vivo, mouse
Text: LU1205 or FEMX human melanoma tumor-derived cell lines that constitutively express ATF2^51-100 peptide or that contain control vector were each injected subcutaneously into a group of 6 nude mice (10^6 cells per injection) per cell line per experiment. […] The data shown represent three experiments. Bars represent standard deviation, P<0.0015. […] The data shown represent three experiments. Bars represent standard deviation, P<0.0021.
The ability of expressed ATF2^51-100 peptide to affect the tumorigenicity of human melanoma cells in vivo was examined. To this end, growth of LU1205 and FEMX human melanoma cells were monitored in nude mice in the presence or absence of treatment that induced apoptosis in vitro. LU1205, FEMX and SW-1 cells that express control or ATF2^51-100 peptide were trypsinized, resuspended in PBS and injected SC (1×10^6) into 6-7 week old mice in the lower flank. When the tumor reached the size of about 50 mm^3, 10 μM of SB203580 was injected into 4 areas of the LU1205 tumors every 4 days during a 2 week period. For FEMX tumors, UCN-01 (5 mg/Kg) was fed by gavage, three times per week for a total of 2 weeks. Tumor growth was monitored every two days. Tissue samples were fixed in formalin and embedded in paraffin. Hematoxylin and eosin (H&E), TUNEL staining was performed as previously described (Bhoumik et al., Clin. Cancer Res., 2001; 2:331-342).

TRE-Luc = TRE-Luc luciferase reporter assay in SW1 cells; assay type: cell-based, mouse; conditions: SW1 cells expressing peptide, luciferase after 18 hours
Method: (§1) SW1 cells constitutively expressing the indicated ATF2 peptides were transfected with either TRE-Luc (FIG. 5A) or with Jun2-Luc (FIG. 5B), and proteins were prepared for analysis of luciferase activity after 18 hours. Analysis was performed in duplicate, and the data reflect three independent experiments. SW1 cells expressing the ATF2 peptides were analyzed to establish the degree of spontaneous (basal) apoptosis as well as apoptosis 24 hours following treatment with the chemotherapeutic drug UCN-01 (FIG. 5C). The data represent triplicate analysis reproduced three times.
Alteration of ATF2 Transcriptional Activity. Assessed next was whether the short peptide caused any change in transcriptional activity mediated by ATF2 and its heterodimeric partners, using the TRE and Jun2 promoter sequences linked to the Luciferase marker gene. These reporter constructs (0.3 μg) were cotransfected with the respective expression vectors into melanoma cells (5×10^5) using Lipofectamine (Invitrogen). Luciferase activity was measured using the Luciferase assay system (Promega).

SW1 melanoma cells = assay: Apoptosis of SW1 cells by FACS (hypodiploid nuclei); assay type: cell-based, mouse; conditions: SW1 cells expressing peptide, given as control-to-peptide increase
Method: as §1
(§2) Effect on Apoptosis. Assessed next was the degree of apoptosis in SW1 cells under normal growth (spontaneous) as well as following treatment with chemotherapeutic drugs. Cells were analyzed to detect spontaneous (basal) or induced apoptosis [following treatment with the kinase inhibitor UCN-01 (kindly provided by NCI repository) for 36 hours]. Apoptosis was measured by using FACS (Ivanov et al., Mol. Cell, 2001, 7:517-28) to quantify the percentage of hypodiploid nuclei undergoing DNA fragmentation. Nucleation as a marker of apoptosis was monitored via DAPI staining of cells at indicated time points after their treatment. Caspase activity was monitored by immunoblots using antibodies to caspase 9 (Santa Cruz). PARP cleavage was monitored by corresponding antibodies (PharMingen).

SW-1 cells = assay: Caspase and PARP cleavage immunoblot in SW-1 cells; assay type: cell-based, mouse; conditions: peptides by transfection, UCN-01 (5 μm) 24 hours
Method: Human melanoma cells LU1205 were transfected with the nucleic acid molecules that encode either ATF2^51-100 peptide or ATF2^51-60 peptide. Twenty-four hours after transfection, cells were treated with of UCN-01 (5 μm) for 24 hours. Immunoblotting analysis was performed using caspase 9 and PARP antibodies, and β-actin was used as a loading control (FIG. 6A). The same experiment was performed in SW-1 cells (FIG. 6B). Stars point to the position of the uncleaved form whereas arrows point to the cleaved products.
as §2

[2] = tested on: MCF7 human breast cancer cells; conditions: cited from earlier work
[3] = tested on: early-stage melanoma, melanocytes, in vitro transformed 293T cells; conditions: cited from earlier work
JNK = conditions: cited from earlier work

Substance: ATF2^51-100: amino-terminal peptide of ATF2, amino acid residue 51 to 100 (about a 50 amino acid peptide), expressed in tumor cells (MTLKFGPARNDSVIVADQTPTPTRFLKNCEEVGLFNELASPFENEFKKAS; UniProt P15336 51-100, looked up, fragment)
- tumor growth rate ([1]; LU1205 cells constitutively expressing peptide, SC in nude mice): reduced the growth rates; also recorded: inhibits growth
- tumor growth with additional treatment ([1]; peptide-expressing LU1205 tumors plus p38 inhibitor SB203580 10 μM intratumoral): additional decrease in growth
- TRE-Luc activity (TRE-Luc): marked increase
- spontaneous (basal) apoptosis (SW1 melanoma cells; absence of treatment): 12-55%
- UCN-01-induced apoptosis (SW1 melanoma cells; treated with UCN-01): 20-77%
- activation of caspase 9 (cleavage fragments) (SW-1 cells): activation of caspase 9 even prior to treatment with UCN-01
- sensitization by ATF2 peptide [2]: also observed
- sensitization by ATF2 peptide [3]: not in early-stage melanoma, or melanocytes, or in in vitro transformed 293T cells
- basal JNK activity (JNK): increased basal JNK activity
- binding to JNK (JNK): binds to JNK

From patent US20090281025A1, “INHIBITION OF TUMOR GROWTH AND METASTASIS BY ATF2-DERIVED PEPTIDES” (Mount Sinai School Of Medicine of New York University, priority 2004, published 2009)
